{
  "source": "ChEMBL document CHEMBL6134863",
  "about": "“Novel Mitochondria-Targeted Asymmetric Heptamethine Cyanine Dye for Cancer Targeted NIR Imaging and Potent Necrosis and Senescence Induction with Prolonged Retention” (J Med Chem, 2025)",
  "key": {"NIH3T3": {"test_system": "NIH3T3", "experiment": "Cytotoxicity against mouse 3T3 cells assessed as decrease in cell viability up to 5 uM incubated for 24 hrs by CCK-8 assay", "assay_type": "toxicity, cell-based", "settings": "nih3t3, 24 h"}, "[1]": {"experiment": "Photostability of compound in DMSO-H2O incubated for 1 hr irradiated with deuterium lamp by absorbance based analysis", "assay_type": "physicochemical", "settings": "read-out: Stability"}, "[2]": {"experiment": "Antioxidant activity of compound in presence of ONOO-", "assay_type": "functional"}, "[3]": {"experiment": "Antioxidant activity of compound in presence of […]", "assay_type": "functional"}, "[4]": {"experiment": "Drug accumulation in tumor to muscle of BALB/c mouse implanted with mouse 4T1 cells at 0.5 mg/kg, iv measured at 4 to 168 hrs", "assay_type": "ADME, organism-based", "settings": "in vivo, time 4-168 hrs"}, "NCI-H226": {"test_system": "NCI-H226", "experiment": "Cytotoxicity against human NCI-H226 assessed as decrease in cell viability up to 10 uM incubated for 24 hrs by CCK-8 assay", "assay_type": "functional, cell-based"}, "[5]": {"experiment": "Stability of compound in DMSO-H2O incubated for 1 hr by absorbance based analysis", "assay_type": "physicochemical"}, "NCI-H250": {"test_system": "NCI-H250", "experiment": "Antitumor activity against human […] cells xenografted in BALB/c mouse assessed as tumor growth inhibition 0.5 mg/kg, iv measured for 5 days", "assay_type": "functional, organism-based", "settings": "time 5.0 day"}, "4T1": {"test_system": "4T1", "experiment": "Antitumor activity against mouse 4T1 cells implanted in BALB/c mouse assessed as tumor growth inhibition 5 mg/kg, iv measured for 11 days", "assay_type": "functional", "settings": "4T1, 264 h, time 11 day, read-out: TGI"}, "[6]": {"experiment": "Antioxidant activity of compound in presence of ROS", "assay_type": "functional"}, "[7]": {"experiment": "Drug uptake in human NCI-H226 cells assessed as increase in fluorescence intensity incubated for 24 hrs by fluorescence based microscopic analysis", "assay_type": "ADME, cell-based", "settings": "nci-h226, 24 h"}, "[8]": {"experiment": "Antioxidant activity of compound in presence of CO3", "assay_type": "functional"}, "[9]": {"experiment": "Antioxidant activity of compound in presence of H2O2-", "assay_type": "functional"}, "[10]": {"experiment": "Antioxidant activity of compound in presence of RSS", "assay_type": "functional"}, "[11]": {"experiment": "Stability of compound in DMSO-H2O incubated for 150 mins by absorbance based analysis", "assay_type": "physicochemical", "settings": "2.5 h"}, "[12]": {"experiment": "Antioxidant activity of compound in presence of HSO3-", "assay_type": "functional"}, "[13]": {"experiment": "Cytotoxicity against human Primary lung fibroblast assessed as decrease in cell viability up to 5 uM incubated for 24 hrs by CCK-8 assay", "assay_type": "toxicity, cell-based"}, "[14]": {"experiment": "Antioxidant activity of compound in presence of NH4+", "assay_type": "functional"}, "[15]": {"experiment": "Solubility of compound in DMSO-H2O", "assay_type": "physicochemical"}, "[16]": {"experiment": "Antioxidant activity of compound in presence of Ca2+", "assay_type": "functional"}, "[17]": {"experiment": "Cytotoxicity against human Primary lung fibroblast assessed as decrease in cell viability up to 10 uM incubated for 24 hrs by CCK-8 assay", "assay_type": "toxicity, cell-based"}, "[18]": {"experiment": "Antioxidant activity of compound in presence of Cl-", "assay_type": "functional"}, "[19]": {"experiment": "Antioxidant activity of compound in presence of OH", "assay_type": "functional"}, "[20]": {"experiment": "Toxicity in BALB/c mouse implanted with mouse 4T1 cells assessed as survival rate at 5 mg/kg, iv measured for 11 days", "assay_type": "organism-based", "settings": "in vivo, time 11 day"}, "[21]": {"experiment": "Drug uptake in mouse 4T1 cells assessed as increase in green fluorescence intensity at 5 uM incubated for 30 mins by F-actin staining staining based microscopic analysis", "assay_type": "ADME, cell-based", "settings": "4t1, 0.5 h"}, "[22]": {"experiment": "Antioxidant activity of compound in presence of Br-", "assay_type": "functional"}, "[23]": {"experiment": "Drug accumulation in BALB/c mouse tumor implanted with mouse 4T1 cells assessed as increase in fluorescence intensity at 0.5 mg/kg, iv measured at 48 hrs by imaging based analysis", "assay_type": "ADME, organism-based, Neoplasm", "settings": "in vivo"}, "[24]": {"experiment": "Drug uptake in mouse 4T1 cells assessed as increase in red fluorescence intensity at 5 uM incubated for 30 mins by CY7 staining based microscopic analysis", "assay_type": "ADME, cell-based", "settings": "4t1, 0.5 h"}, "[25]": {"experiment": "Antioxidant activity of compound in presence of HCO3-", "assay_type": "functional"}, "[26]": {"experiment": "Distribution coefficient, logD of compound", "assay_type": "physicochemical", "settings": "octanol/water"}, "[27]": {"experiment": "Drug localization in mitochondria of human NCI-H226 cell by MitoTracker Red based NIR confocal microscopic analysis", "assay_type": "ADME"}, "[28]": {"experiment": "Antioxidant activity of compound in presence of SO4", "assay_type": "functional"}, "[29]": {"experiment": "Antioxidant activity of compound in presence of HCHO", "assay_type": "functional"}, "[30]": {"experiment": "Drug uptake in human NCI-H226 cells assessed as increase in green fluorescence intensity at 5 uM incubated for 30 mins by F-actin staining staining based microscopic analysis", "assay_type": "ADME, cell-based", "settings": "nci-h226, 0.5 h"}, "[31]": {"experiment": "Antioxidant activity of compound in presence of ClO-", "assay_type": "functional"}, "[32]": {"experiment": "Partition coefficient, logP of compound", "assay_type": "physicochemical", "settings": "octanol/water"}, "[33]": {"experiment": "Drug accumulation in BALB/c mouse tumor xenografted with human NCI-H520 cells assessed as increase in fluorescence intensity at 0.5 mg/kg, iv measured at 96 hrs by imaging based analysis", "assay_type": "ADME, organism-based, Neoplasm", "settings": "in vivo"}, "[34]": {"experiment": "Drug uptake in human NCI-H226 cells assessed as increase in red fluorescence intensity at 5 uM incubated for 30 mins by CY7 staining based microscopic analysis", "assay_type": "ADME, cell-based", "settings": "nci-h226, 0.5 h"}, "[35]": {"experiment": "Ratio of drug level in tumor to muscle of BALB/c mouse implanted with mouse 4T1 cells at 0.5 mg/kg, iv measured at 12 to 24 hrs", "assay_type": "ADME, organism-based", "settings": "in vivo, time 12-24 hrs"}, "[36]": {"experiment": "Antioxidant activity of compound in presence of NO2", "assay_type": "functional"}, "[37]": {"experiment": "Antioxidant activity of compound in presence of L-Cysteine", "assay_type": "functional"}, "[38]": {"experiment": "Antioxidant activity of compound in presence of Fe3+", "assay_type": "functional"}, "[39]": {"experiment": "Antioxidant activity of compound in presence of RNS", "assay_type": "functional"}, "[40]": {"experiment": "Antioxidant activity of compound in presence of Glutathione", "assay_type": "functional"}, "[41]": {"experiment": "Antioxidant activity of compound in presence of TBHP", "assay_type": "functional"}},
  "note": "The source made the active and inactive calls. No cut-off for these calls is given here.",
  "data": [
    {"compound": "CCN1/C(=C/C=C2\\CCCC(/C=C/C3=[N+](CCCOc4ccc(C(=O)O)cc4)c4ccccc4C3(C)C)=C2Cl)C(C)(C)c2ccccc21.[Br-]", "values": [
      {"measurement": "Activity", "setting": "NIH3T3", "value": "> 80", "unit": "%"},
      {"measurement": "remaining at 1 h", "setting": "[1]", "value": 96.9, "unit": "%"},
      {"measurement": "Activity", "setting": "[2]", "value": "Active"},
      {"measurement": "Activity", "setting": "[3]", "value": "Active"},
      {"measurement": "Drug uptake", "setting": "[4]", "value": "Active"},
      {"measurement": "Activity", "setting": "NCI-H226", "value": "Active"},
      {"measurement": "Stability", "setting": "[5]", "value": "Stable"},
      {"measurement": "TGI", "setting": "NCI-H250", "value": "Active"},
      {"measurement": "inhibition in vivo at 5 mg/kg", "setting": "4T1", "value": "~60", "unit": "%"},
      {"measurement": "Activity", "setting": "[6]", "value": "Active"},
      {"measurement": "Drug uptake", "setting": "[7]", "value": "Active"},
      {"measurement": "Activity", "setting": "[8]", "value": "Active"},
      {"measurement": "Activity", "setting": "[9]", "value": "Active"},
      {"measurement": "Activity", "setting": "[10]", "value": "Active"},
      {"measurement": "Stability", "setting": "[11]", "value": "Stable"},
      {"measurement": "Activity", "setting": "[12]", "value": "Active"},
      {"measurement": "Activity", "setting": "[13]", "value": "Non-toxic"},
      {"measurement": "Activity", "setting": "[14]", "value": "Active"},
      {"measurement": "solubility", "setting": "[15]", "value": 170, "unit": "µg/mL"},
      {"measurement": "Activity", "setting": "[16]", "value": "Active"},
      {"measurement": "Activity", "setting": "[17]", "value": "Non-toxic"},
      {"measurement": "Activity", "setting": "[18]", "value": "Active"},
      {"measurement": "Activity", "setting": "[19]", "value": "Active"},
      {"measurement": "survival at 264 h", "setting": "[20]", "value": 100, "unit": "%"},
      {"measurement": "Drug uptake", "setting": "[21]", "value": "Active"},
      {"measurement": "Activity", "setting": "[22]", "value": "Active"},
      {"measurement": "Drug uptake", "setting": "[23]", "value": "Active"},
      {"measurement": "Drug uptake", "setting": "[24]", "value": "Active"},
      {"measurement": "Activity", "setting": "[25]", "value": "Active"},
      {"measurement": "logD", "setting": "[26]", "value": 4.34},
      {"measurement": "Drug uptake", "setting": "[27]", "value": "Active"},
      {"measurement": "Activity", "setting": "[28]", "value": "Active"},
      {"measurement": "Activity", "setting": "[29]", "value": "Active"},
      {"measurement": "Drug uptake", "setting": "[30]", "value": "Active"},
      {"measurement": "Activity", "setting": "[31]", "value": "Active"},
      {"measurement": "logP", "setting": "[32]", "value": 6.05},
      {"measurement": "Drug uptake", "setting": "[33]", "value": "Active"},
      {"measurement": "Drug uptake", "setting": "[34]", "value": "Active"},
      {"measurement": "Ratio", "setting": "[35]", "value": "> 5"},
      {"measurement": "Activity", "setting": "[36]", "value": "Active"},
      {"measurement": "Activity", "setting": "[37]", "value": "Active"},
      {"measurement": "Activity", "setting": "[38]", "value": "Active"},
      {"measurement": "Activity", "setting": "[39]", "value": "Active"},
      {"measurement": "Activity", "setting": "[40]", "value": "Active"},
      {"measurement": "Activity", "setting": "[41]", "value": "Active"}
    ]}
  ]
}
